PubChem BioAssay AID179 (DTP/NCI, 2004)
Activity calls are given as the source filed them.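 Rule for the calls: active = compounds giving half or more protection of infected cells from virus-caused growth loss, again on retest; inactive = the rest.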

System: CEM cells HIV-1 protection, formazan growth assay
Experiment: NCI AIDS Antiviral Assay
Conditions: for IC50: measured here: growth of uninfected CEM cells
Experimental: The ability of compounds to protect human CEM cells from HIV-1 infection is measured as a screen for new compounds capable of inhibiting the HIV virus. Five concentrations of drug were tested on uninfected and infected cells and cell growth was measured using a soluble formazan assay. […] Compounds that provided at least 50% protection were retested. Compounds that provided at least 50% protection on retest were listed as moderately active. Compounds that reproducibly provided 100% protection were listed as confirmed active. […] Note that the inability to provide protection could be due to toxicity.

Compound	EC50	IC50	outcome
Cc1ccc(-n2c(O)c3c(N)n[nH]c3c(C#N)c2=O)cc1	155 µM	> 200 µM	–
COc1cc(Cl)cc(N(O)C(C)=O)c1OCc1ccccc1	> 562 µM	58.9 µM	–
COc1cc(OC)cc(C2(C(=O)O)CCN(C)CC2)c1	> 891 µM	97.7 µM	–
COc1ccc(N2C(=O)C3c4[nH]c5ccc(C)cc5c4C4CCC(C(C)C)CC4C3C2=O)cc1 (stereo not drawn)	–	–	inactive
Oc1cc(Cl)cc2cc(Cl)cnc12	–	–	inactive
C=CCNC(=O)NCCCC(NC(C)=O)C(=O)NCc1ccccc1 (stereo not drawn)	> 72.4 µM	> 72.4 µM	–
CC1CCN(CC(=O)N2c3ccccc3Sc3cc4ccccc4cc32)CC1	> 151 µM	> 151 µM	–
O=[N+]([O-])c1cc(Cl)cc2cc(Br)cnc12	> 200 µM	> 200 µM	–
CC1=NC(=Cc2ccccc2O)C(=O)N1n1c(-c2ccccc2)nc2ccccc2c1=O	> 200 µM	12.6 µM	–
C/C=C1/C(=C/c2[nH]c(/C=c3\[nH]/c(=C/C4=NC(=O)C(CC)=C4C)c(C)c3CCC(=O)O)c(CCC(=O)O)c2C)NC(=O)C1C (stereo not drawn)	–	–	inactive
COC(=O)CC(C(C(C)=O)C(=O)OCc1ccccc1)N1C(=O)OCC1c1ccccc1 (stereo not drawn)	> 100 µM	95.5 µM	–
COc1cccc2c1OC1(C=C2)Oc2ccccc2C(=O)N1C (stereo not drawn)	> 200 µM	30.9 µM	–
CC1(C)N(OC2CCCCO2)C(c2ccccc2)C(c2ccccc2)=[N+]1[O-] (stereo not drawn)	> 200 µM	35.5 µM	–
Oc1cc(Br)cc2cc(Br)cnc12	–	–	inactive
N#CCC(=O)N/N=C(/C(=O)Nc1ccccc1)C1C(=O)N(c2ccccc2)N=C1N (stereo not drawn)	> 170 µM	> 170 µM	–
COc1ccc(C2CC(c3ccccc3)=Nc3ccccc3S2)cc1 (stereo not drawn)	> 51.3 µM	27.5 µM	–
CCCCCC(/C=C/C1CCC(=O)C1)OCOCCOC (stereo not drawn)	> 200 µM	18.2 µM	–
Cc1c(C(N)=C(C#N)C#N)c(=N)oc2ccccc12	> 200 µM	36.3 µM	–
Cc1ccc(Sc2ccccc2[N+](=O)[O-])cc1	–	–	inactive
CN1CC=C(c2cccn2C)CC1	> 200 µM	132 µM	–
CC(C)c1ccc(O)c(=O)cc1	–	–	inactive
COc1nc(N)nc2c1CSc1ccccc1-2	> 77.6 µM	> 77.6 µM	–
CCSC1=N/C(=C\c2ccco2)C(Cl)=N1	> 100 µM	> 100 µM	–

Compound	EC50	IC50	outcome
O=[N+]([O-])c1ccc2c3c(cccc13)S(=O)(=O)O2	> 200 µM	85.1 µM	–
CCC12OC(COc3ccccc3)CN1CCS2 (stereo not drawn)	> 257 µM	132 µM	–
Cc1ccccc1-n1c(=O)sc2c(=O)n(-c3ccccc3)c(=S)[nH]c21	> 2.82 µM	> 2.82 µM	–
COc1cc(C(=O)N/N=C/N(C)C)cc(OC)c1OC	> 200 µM	> 200 µM	–
C=C(C)CCC1CCCCC(CN(C)C)C1=O (stereo not drawn)	> 200 µM	110 µM	–
COC1=C(Br)[C@H](O)[C@@]2(C=C1Br)CC(C(=O)NCCCOc1c(Br)cc(C(O)CNC(C)=O)cc1Br)=NO2 (stereo partly drawn)	> 10 µM	6.61 µM	–
COc1cccc(CC2C(=O)NC(=O)NC2=O)c1	> 200 µM	> 200 µM	–
CCOC(=O)C(NC(=O)Nc1ccc(Cl)cc1)(OC)C(F)(F)F (stereo not drawn)	–	–	inactive
O=C(Nc1ccccn1)Nc1ccccn1	> 200 µM	107 µM	–
O=C1c2cc([N+](=O)[O-])ccc2-c2ccc3c4ccc5c6c(ccc(c7ccc1c2c73)c64)C(=O)c1cc([N+](=O)[O-])ccc1-5	> 100 µM	> 100 µM	–
Nc1nc(N)nc(-c2cnccn2)n1	> 200 µM	> 200 µM	–
[B-]1n2ccc[n+]2[B-]n2ccc[n+]21	> 200 µM	> 200 µM	–
C[C@@H]1C[C@H](C)S(=O)[C@H](C)S1 (stereo partly drawn)	> 1410 µM	> 1410 µM	–
C/C(CC(=O)Nc1cccc([N+](=O)[O-])c1)=N/NC(N)=S	> 447 µM	> 447 µM	–
COc1ccc(/C=C2\N=C(NN)N=C2Cl)cc1	> 200 µM	> 200 µM	–
Nc1ccc(C(=O)NN2C(=O)C(Cl)C2c2ccc(O)cc2)cc1 (stereo not drawn)	> 200 µM	9.12 µM	–
CC(O)CN(CC(C)O)N(CC(C)O)CC(C)O (stereo not drawn)	> 955 µM	219 µM	–
CC(CN1CCCCC1)SSC(C)CN1CCCCC1 (stereo not drawn)	> 200 µM	24 µM	–
Cc1ccc(NC(=O)CCc2nnc3s/c(=C\C=C\c4ccccc4)c(=O)n23)cc1	> 61.7 µM	> 61.7 µM	–
O=c1[nH]nc(Cn2c3ccc(Br)cc3c3nc4ccccc4nc32)n1C1CCCCC1	> 200 µM	174 µM	–
CC1CCCC(C(=O)/C(=C/c2cccc(Cl)c2)C(=O)C(=O)O)C1 (stereo not drawn)	> 15.5 µM	> 15.5 µM	–
CC(=O)OC1Sc2ccccc2C(=O)N2CCCC12 (stereo not drawn)	> 200 µM	> 200 µM	–
